Experimental data as given in publication PMC6414199, “Bim escapes displacement by BH3-mimetic anti-cancer drugs by double-bolt locking both Bcl-XL and Bcl-2” (eLife, 2019).

Target: T1, Bcl-XL (Homo sapiens, UniProt Q07817)
T1 construct: gene BCL2L1; mCerulean3-Bcl-XL fusion expressed in MCF-7 cells
Test: live-cell FLIM-FRET displacement of Venus-Bad from mCer3-Bcl-XL in MCF-7 cells
Format: cell-based

T1 sequence (Q07817 whole entry, the tested form may be a part): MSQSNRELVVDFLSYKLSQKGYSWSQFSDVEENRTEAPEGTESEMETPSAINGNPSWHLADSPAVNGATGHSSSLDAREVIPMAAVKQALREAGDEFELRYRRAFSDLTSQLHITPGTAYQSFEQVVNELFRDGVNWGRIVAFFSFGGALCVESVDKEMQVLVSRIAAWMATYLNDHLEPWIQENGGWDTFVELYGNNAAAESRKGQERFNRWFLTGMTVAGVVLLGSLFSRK

Compound: CN(C)CC#Cc1ccc(OCCCc2sc(N3CCc4cccc(C(=O)Nc5nc6ccccc6s5)c4C3)nc2C(=O)O)c(F)c1 [A-1155463]
- IC50: < 1250 nM
